The test concerns the target T1, Human KDR (Homo sapiens, UniProt P35968).
T1 construct: expressed in transfected cells; host or cells: NIH3T3 cells (mouse fibroblasts)
Kind of test: Inhibition of KDR phosphorylation in human KDR-transfected NIH3T3 cells (ELISA).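 As to Selection ratio (KDR phosphorylation IC50 / c-fms phosphorylation IC50): class 2 means ratio of 10 or more and class 3 means 50 or more.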 Format: cell-based. The following applies: for Selection ratio (KDR phosphorylation IC50 / c-fms phosphorylation IC50): class 0-3; for IC50: human KDR-transfected NIH3T3 cells, VEGF 100 ng/ml, ELISA, read-out: KDR phosphorylation 50% inhibitory concentration (IC50). An outline of the steps:
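NIH3T3 cells transfected with human KDR, in 0.1% FCS medium, treated with compound 1 hr at 37° C, then stimulated with VEGF 100 ng/ml for 2 min. Lysate KDR phosphorylation measured by anti-phosphotyrosine capture/anti-KDR ELISA (A450); IC50 from inhibition normalized between VEGF-stimulated and unstimulated wells.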

T1 sequence (P35968 20-1356): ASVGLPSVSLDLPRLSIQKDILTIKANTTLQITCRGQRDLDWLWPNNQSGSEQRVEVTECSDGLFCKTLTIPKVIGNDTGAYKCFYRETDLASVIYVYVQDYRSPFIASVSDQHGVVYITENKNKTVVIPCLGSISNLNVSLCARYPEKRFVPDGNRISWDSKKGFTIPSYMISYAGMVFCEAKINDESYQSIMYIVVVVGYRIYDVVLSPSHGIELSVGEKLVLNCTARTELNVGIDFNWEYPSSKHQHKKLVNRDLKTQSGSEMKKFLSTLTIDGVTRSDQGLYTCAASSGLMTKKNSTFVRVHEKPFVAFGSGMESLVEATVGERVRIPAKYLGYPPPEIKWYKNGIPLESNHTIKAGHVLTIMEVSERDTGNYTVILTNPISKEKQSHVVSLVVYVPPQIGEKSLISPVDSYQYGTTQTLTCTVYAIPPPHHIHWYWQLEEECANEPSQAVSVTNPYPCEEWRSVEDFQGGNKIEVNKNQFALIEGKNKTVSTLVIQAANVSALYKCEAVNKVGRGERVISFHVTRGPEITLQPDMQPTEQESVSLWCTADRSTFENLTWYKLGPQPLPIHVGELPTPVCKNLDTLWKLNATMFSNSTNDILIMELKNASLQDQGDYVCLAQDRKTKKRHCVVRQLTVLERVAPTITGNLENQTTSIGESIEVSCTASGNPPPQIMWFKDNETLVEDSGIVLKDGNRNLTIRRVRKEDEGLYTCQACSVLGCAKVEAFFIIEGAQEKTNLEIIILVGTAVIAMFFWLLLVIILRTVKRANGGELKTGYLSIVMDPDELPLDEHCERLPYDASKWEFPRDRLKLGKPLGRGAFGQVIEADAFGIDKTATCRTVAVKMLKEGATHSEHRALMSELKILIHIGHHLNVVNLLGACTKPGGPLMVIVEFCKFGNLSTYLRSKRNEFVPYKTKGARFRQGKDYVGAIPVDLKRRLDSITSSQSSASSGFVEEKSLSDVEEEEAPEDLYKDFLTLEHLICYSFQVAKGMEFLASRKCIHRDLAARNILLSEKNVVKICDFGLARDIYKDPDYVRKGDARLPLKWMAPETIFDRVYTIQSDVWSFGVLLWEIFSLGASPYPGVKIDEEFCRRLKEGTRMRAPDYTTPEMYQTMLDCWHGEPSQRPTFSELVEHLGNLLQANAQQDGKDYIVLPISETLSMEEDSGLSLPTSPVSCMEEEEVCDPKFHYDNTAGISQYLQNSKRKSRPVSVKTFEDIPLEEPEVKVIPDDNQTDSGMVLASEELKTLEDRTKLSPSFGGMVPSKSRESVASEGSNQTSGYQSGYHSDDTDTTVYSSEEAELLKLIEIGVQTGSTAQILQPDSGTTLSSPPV

For the compound `COc1cc2nccc(Oc3ccc(NC(=O)N[C@@H](C)c4ccc(F)cc4)cc3)c2cc1OC` [Example 2, N-{4-[(6,7-Dimethoxy-4-quinolyl)oxy]phenyl}-N′-[(1S)-1-(4-fluorophenyl)ethyl]urea], the “Selection ratio (KDR phosphorylation IC50 / c-fms phosphorylation IC50)” value is listed as 2 (when the value was 10 or more) and the IC50 was 32.3 nM.
As to `COc1cc2nccc(Oc3ccc(NC(=O)N[C@H](C)c4ccc(F)cc4)cc3)c2cc1OC` [Example 3, N-{4-[(6,7-Dimethoxy-4-quinolyl)oxy]phenyl}-N′-[(1R)-1-(4-fluorophenyl)ethyl]urea], the “Selection ratio (KDR phosphorylation IC50 / c-fms phosphorylation IC50)” value was 0 (KDR phosphorylation 50% inhibitory concentration [μM]/c-fms phosphorylation 50% inhibitory concentration [μM] was less than 5) and the IC50 is less than 1 nM.
The corresponding values for `COc1cc2nccc(Oc3ccc(NC(=O)N[C@@H](C)c4ccc([N+](=O)[O-])cc4)cc3)c2cc1OC` [Example 35, N-{4-[(6,7-Dimethoxy-4-quinolyl)oxy]phenyl}-N′-[(1S)-1-(4-nitrophenyl)ethyl]urea] are 2 (when the value was 10 or more) and 310 nM.
For `COc1cc2nccc(Oc3ccc(NC(=O)N[C@H](C)c4ccc([N+](=O)[O-])cc4)cc3)c2cc1OC` [Example 36, N-{4-[(6,7-Dimethoxy-4-quinolyl)oxy]phenyl}-N′-[(1R)-1-(4-nitrophenyl)ethyl]urea], the “Selection ratio (KDR phosphorylation IC50 / c-fms phosphorylation IC50)” value is 0 (KDR phosphorylation 50% inhibitory concentration [μM]/c-fms phosphorylation 50% inhibitory concentration [μM] was less than 5) and the IC50 was determined as 134 nM.
On to `COc1cc2nccc(Oc3ccc(NC(=O)N[C@@H](C)c4ccc(C)cc4)cc3)c2cc1OC` [Example 41, N-{4-[(6,7-Dimethoxy-4-quinolyl)oxy]phenyl}-N′-[(1S)-1-(4-methylphenyl)ethyl]urea], for which the “Selection ratio (KDR phosphorylation IC50 / c-fms phosphorylation IC50)” value is given as 1 (when the value was 5 or more) and the IC50 was determined as 18.8 nM.
Take `COc1cc2nccc(Oc3ccc(NC(=O)N[C@H](C)c4ccc(C)cc4)cc3)c2cc1OC` [Example 42, N-{4-[(6,7-Dimethoxy-4-quinolyl)oxy]phenyl}-N′-[(1R)-1-(4-methylphenyl)ethyl]urea]: the “Selection ratio (KDR phosphorylation IC50 / c-fms phosphorylation IC50)” value was 0 (KDR phosphorylation 50% inhibitory concentration [μM]/c-fms phosphorylation 50% inhibitory concentration [μM] was less than 5) and the IC50 came out at 16.6 nM.
For `COc1cc2nccc(Oc3ccc(NC(=O)N[C@H](C)c4cccc(Br)c4)cc3)c2cc1OC` [Example 45, N-[(1R)-1-(3-Bromophenyl)ethyl]-N′-{4-[(6,7-dimethoxy-4-quinolyl)oxy]phenyl}urea], the “Selection ratio (KDR phosphorylation IC50 / c-fms phosphorylation IC50)” value was 0 (KDR phosphorylation 50% inhibitory concentration [μM]/c-fms phosphorylation 50% inhibitory concentration [μM] was less than 5) and the IC50 stood at 2.5 nM.
The corresponding values for `COc1cc2nccc(Oc3ccc(NC(=O)N[C@@H](C)c4cccc(Br)c4)cc3)c2cc1OC` [Example 46, N-[(1S)-1-(3-Bromophenyl)ethyl]-N′-{4-[(6,7-dimethoxy-4-quinolyl)oxy]phenyl}urea] are 3 (when the value was 50 or more) and 507 nM.
As for `COc1cc2nccc(Oc3ccc(NC(=O)N[C@@H](C)c4ccc(Cl)cc4)cc3)c2cc1OC` [Example 47, N-[(1S)-1-(4-Chlorophenyl)ethyl]-N′-{4-[(6,7-dimethoxy-4-quinolyl)oxy]phenyl}urea], the “Selection ratio (KDR phosphorylation IC50 / c-fms phosphorylation IC50)” value is reported as 3 (when the value was 50 or more) and the IC50 came out at 310 nM.
The corresponding values for `COc1cc2nccc(Oc3ccc(NC(=O)N[C@H](C)c4ccc(Cl)cc4)cc3)c2cc1OC` [Example 48, N-[(1R)-1-(4-Chlorophenyl)ethyl]-N′-{4-[(6,7-dimethoxy-4-quinolyl)oxy]phenyl}urea] are 0 (KDR phosphorylation 50% inhibitory concentration [μM]/c-fms phosphorylation 50% inhibitory concentration [μM] was less than 5) and 2.7 nM.
The corresponding values for `COc1cccc([C@H](C)NC(=O)Nc2ccc(Oc3ccnc4cc(OC)c(OC)cc34)cc2)c1` [Example 49, N-{4-[(6,7-Dimethoxy-4-quinolyl)oxy]phenyl}-N′-[(1S)-1-(3-methoxyphenyl)ethyl]urea] are 2 (when the value was 10 or more) and 45.4 nM.
The corresponding values for `COc1cccc([C@@H](C)NC(=O)Nc2ccc(Oc3ccnc4cc(OC)c(OC)cc34)cc2)c1` [Example 50, N-{4-[(6,7-Dimethoxy-4-quinolyl)oxy]phenyl}-N′-[(1R)-1-(3-methoxyphenyl)ethyl]urea] are 0 (KDR phosphorylation 50% inhibitory concentration [μM]/c-fms phosphorylation 50% inhibitory concentration [μM] was less than 5) and 28.3 nM.

The values are drawn from patent US7598258B2, “Quinoline derivatives and quinazoline derivatives inhibiting autophosphorylation of macrophage colony stimulating factor receptor” (Kirin Beer Kabushiki Kaisha, priority 2002, dated 2009).
